Experimental findings from patent US4021566A, “2,5-Dimethyl-1-pyrrole-lower-alkanecarboxamides” (Sterling Drug Inc., priority 1975, dated 1977) are described below.

The structures appear in SMILES notation. Values joined by “and” are separate entries in the source; they are usually repeats but may differ in a detail not shown here. Equal entries are not always repeated.

In one assay the test system is gastric secretion. Nature of the assay: Anti-secretory activity, pylorus ligation method of Shay et al. The assay is classed as in vivo, male albino Wistar rats. The following applies: rat; for Anti-Secretory % Inhibition of Free Acid / Anti-Secretory pH: oral; for Anti-Secretory % Inhibition of Free Acid: vs control; for Anti-Secretory pH: pH of gastric fluid. As for the experimental part: In standard biological test procedures, described generally by Shay et al., Gastroenterology 5, 43 (1945) and 26, 906 (1954) and by Selmici et al., Acta Physiol. Acad. Sci. Hung. […] Anti-secretory activity was determined in male albino Wistar rats weighing approximately 180 g. using the method described by Shay et al. which is described as follows: the rats were divided into medicated groups of at least five rats each and control groups of ten rats. The rats were medicated orally once daily for two days prior to stomach ligation and once again immediately following ligation. All drugs were administered as the free base, and control rats received only the vehicle of medication. The rats were housed individually in wire cages, food was withdrawn forty-eight hours prior to surgery, and water was withdrawn at the time of surgery. Laparotomy was performed under light ether anesthesia, the pyloric-duodenal junction was ligated, and the wound was closed with metal clips and sprayed with a protective surgical dressing. Five hours following surgery, the rats were sacrificed, the stomach was removed, and the gastric juice collected. The gastric fluid was centrifuged, and total volume, color, and volume of solids were recorded. The pH of the gastric fluid was then determined on a Beckamn pH meter, and the "free" and "total" hydrochloric acid content of each gastric sample was determined by titrating an aliquot of the gastric fluid (diluted to approximately 10 ml. with distilled water) by titrating with 0.1N sodium hydroxide against Toepfers reagent and phenolphthalein, respectively. By determining the milliequivalents of hydrochloric acid per milliliter of gastric juice and knowing the total volume of gastric juice secreted by each rat, the total acid output can be calculated. Since pH is a function of "free" acid, the activity of the test compounds can be evaluated by comparison of the mean "free" acid of medicated rats with the mean "free" acid of the controls, and the activity can thus be expressed in terms of percent inhibition of free acid.

Assay [1] deals with reserpine-induced stomach ulceration. Nature of the assay: Anti-ulcer activity, reserpine-induced anti-ulcer test method of Selmici et al. It is filed as in vivo, male, albino, Sprague-Dawley rats. The following applies: rat, oral, reserpine 5.0 mg/kg i.m., vs control. How it is done:
The anti-ulcer activity of the compounds was determined using the reserpine-induced anti-ulcer test method, described by Selmici et al., which is described briefly as follows: male, albino, Sprague-Dawley rats, weighing approximately 300 g., were divided into medicated and control groups of at least five rats each, and one positive control group of five rats medicated with a known drug at the active dose was run with each experiment. The rats were medicated forty-eight, twenty-four, and one hour before receiving an injection of reserpine. All test drugs were administered orally in terms of base, and the control rats received only the vehicle of medication. The rats were housed individually in wire cages, and food was withdrawn twenty-four hours prior to injection of reserpine, while water was allowed ad libitum. One hour following the third medication, 5.0 mg. of reserpine per kilogram of body weight in a concentration of 5 mg./ml. was injected intramuscularly in each rat. Eighteen hours after injection the rats were sacrificed, their stomachs removed, opened along the greater curvature, rinsed in warm saline, and pinned to a cork board for gross observation. The stomachs were examined for the number and size of ulcerations located in the glandular portion of the stomach with the aid of a one millimeter grid ocular with a 10x dissecting microscope. The degree of ulceration was arbitrarily graded according to the number and size of the ulcers as follows:
The points were added together and divided by the number of rats in each group to give an ulcer score, and the difference in the mean scores of the medicated and control group was expressed as percent inhibition of ulceration. Alternatively, the results can be expressed as a ratio of the total number of rats with any degree of ulceration (as the numerator) to the total number of rats in the test group (as the denominator).

In the case of `Cc1c(C)c(C)n(CC(N)=O)c1C` [Example 1, 2,3,4,5-tetramethyl-1-pyrroleacetamide], the “Anti-Secretory % Inhibition of Free Acid” value in the assay on gastric secretion (dose 12.5 (mg/kg)) turned out to be 44%; in the assay with gastric secretion (dose 25 (mg/kg)) it was 49%; in the assay with gastric secretion (dose 50 (mg/kg)), 83%; with gastric secretion (dose 100 (mg/kg)), 91%. Further, the “Anti-Secretory pH” value in the assay with gastric secretion (dose 12.5 (unit not in table; mg/kg)) turned out to be 1.3; in the assay on gastric secretion (dose 25 (mg/kg)), 1.5; in the assay with gastric secretion (dose 50 (mg/kg)), 2.9; in the assay on gastric secretion (dose 100 (mg/kg)), 3.6. For the same compound, the “Anti-Ulcer % Inhibition” value in assay [1] (dose 25 (mg/kg)) worked out at 61%; in assay [1] (dose 50 (mg/kg)), 87%; in assay [1] (dose 100 (mg/kg)), 94%.
Consider `NC(=O)Cn1cccc1` [Reference, pyrrole-1-acetamide, reference compound], for which the “anti-secretory activity (in words)” value with gastric secretion (in vivo) is “has anti-secretory activity”. In the assay with gastric secretion (dose 100 (mg/kg)), the “Anti-Secretory pH” value worked out at 1.7 and the “Anti-Secretory % Inhibition of Free Acid” value was 46%.
On to `Cc1ccc(C)n1CC(N)=O` [Example 2, 2,5-dimethyl-1-pyrroleacetamide], for which the “Anti-Secretory pH” value in the assay with gastric secretion (dose 50 (mg/kg)) was 1.7; with gastric secretion (dose 100 (mg/kg)), 2.7 and 2.6; with gastric secretion (dose 200 (mg/kg)), 4.6. Also, the “Anti-Secretory % Inhibition of Free Acid” value is 21% in the assay with gastric secretion (dose 50 (mg/kg)); 78% and 63% with gastric secretion (dose 100 (mg/kg)); 100% in the assay with gastric secretion (dose 200 (mg/kg)). In addition, the “Anti-Ulcer % Inhibition” value in assay [1] (dose 50 (mg/kg)) was 40%.
In the case of `Cc1c(C)c(C)n(CCC(N)=O)c1C` [Example 3, β-(2,3,4,5-tetramethyl-1-pyrrole)propionamide], in the assay on gastric secretion (dose 100 (mg/kg)), the “Anti-Secretory pH” value is 2.4 and the “Anti-Secretory % Inhibition of Free Acid” value is 60%. The “Anti-Ulcer % Inhibition” value in assay [1] (dose 25 (mg/kg)) came out at 36%. Also, in assay [1] (dose 50 (mg/kg)), the “Anti-Ulcer % Inhibition” value came out at 66%.
